# From patent US12097200B2, “Combination of BI853520 with chemotherapeutic drugs” (INXMED (NANJING) CO., LTD., priority 2020, dated 2024)
# “And” between values parts separate entries of the source, which are not always exact repeats. Equal entries are not always repeated.
# Key:
# CTG-0252 = experiment: Antitumor activity in ovarian cancer PDX model CTG-0252; assay type: in vivo, mouse; conditions: 7 days until end of test, BI 853520 50 mg/kg PO BID, PLD 3 mg/kg IV q7d, carboplatin 25 mg/kg IP + paclitaxel 20 mg/kg IV q7d
# Protocol: (§1) Body weights (at start of dosing) were approximately 20 grams. […] Immunocompromised female mice were housed in HEPA ventilated cages (Innocage® IVC, Innovive USA) at 68-74° F. (20-23° C.) and 30-70% humidity under a 12-hour light/12-hour dark cycle. […] Animals with >10% body weight loss compared to day 0 received DietAel 76A (ClearH2O®, Portland, ME) for free. There were 3 mice in each group.
# (§2) Mice were implanted with tumor cells from the ChampionsTumorGraft® ovarian model, which was established from patients previously treated with platinum-based therapy. After tumors reached 1000-1500 mm^3, they were collected, and tumor fragments SCs were implanted in the left flank of female pre-study mice. Each study animal was implanted with a specific passage batch. Tumor volume was measured twice a week with calipers to monitor tumor growth, and tumor volume (TV) was calculated using the formula (0.52×[length×width^2]). […] After initiation of dosing, animals were weighed daily using a digital scale and TV was measured twice weekly. […]
# (§3) Inhibitory effect on tumor growth was determined by calculating TGI (100%×[1−(final MTV−initial MTV of the treatment group)/(final MTV−initial MTV of the control group)]). […]
# (§4) CR: no TV could be detected (<4×4 mm^2), in 2 consecutive measurements […]
# CTG-0257 = experiment: Antitumor activity in ovarian cancer PDX model CTG-0257; assay type: in vivo, mouse; conditions: 30 days until end of test, doses as Table 3
# Protocol: as §1, §2, §3, §4
# [1] = system: GXA 3039 gastric cancer PDX model
# Protocol: Mice were housed in individual ventilated cages ([sequence] Sealsafe™-IVC-System, [sequence], Hohenpeissenberg, Germany), and type II or III cages were selected according to the number of experimental animals. The cages were under the conditions: 14L:10D light-dark cycle, air exchange (AC) rate of 60-65 AC/hr in the cage, 25±1° C. and 40-70% humidity. […] Water and diet were changed twice a week, and all materials were autoclaved before use.
# Tumor fragments were implanted subcutaneously into the flank of female pre-study mice. […] Animals that were not randomized were euthanized. The date of randomization was designated as day 0 of the test, and dosing began on day 1. […] If less than 70% of the original number of mice survived (i.e. less than 6 out of 8), the entire group was terminated. […] Tolerability was assessed using the group with the largest median body weight loss (BWL) among groups.
# Inhibition of tumor growth was determined by calculating TGI.
# Additional endpoints used to assess efficacy included: time to tumor volume doubling/quadrupling and tumor growth delay/time to tumor progression/tumor repopulation.
# Time to tumor volume doubling/quadrupling: The time to tumor volume doubling/quadrupling (Td/Tq) for the test and control groups was defined as the time interval (in days) required for each group to reach 200%/400% of the median RTV. The relative volume of a single tumor on day X (RTVx [%]) was obtained by dividing the absolute volume of the tumor on day X (Tx) by the absolute volume of the tumor on day 0 (T0) and then multiplying it by 100, as follows:
# Tumor growth delay/time to tumor progression/tumor repopulation: To assess the difference in time to tumor progression/tumor repopulation after tumor regression during the no-dose observation period (tumor growth delay, TGD), Kaplan-Meier survival analysis was used. A relative tumor volume of 400% was defined as the endpoint.
# The control group for oral administration was 0.5% Natrosol. The control group for intravenous administration was 0.9% saline. Each dose was 10 ml/kg.
# Data were used for statistical analysis at the end of the study. The one-tailed nonparametric Mann-Whitney-Wilcoxon U test was used with the significance level a set at 0.05. The p-values obtained from the U-test were adjusted using the Bonferroni-Holm correction.
# To assess the statistical significance of differences in time to tumor progression/tumor growth delay (TGD) using 400% of RTV as the trial endpoint, the Kaplan-Meier survival mode statistic was used in conjunction with the log-rank Mantel-Cox test for pairwise comparisons.
# Additionally, to assess tolerance to treatment, a two-tailed nonparametric Mann-Whitney-Wilcoxon U test was performed using body weights determined at the end of the dosing period (i.e., on the day TGI values were calculated).
# By convention, p-values≤0.05 represented significant tumor inhibition or weight loss.
# KYSE-70 cells = experiment: Antitumor activity in mouse xenograft model of human esophageal cancer (KYSE-70); assay type: in vivo; conditions: KYSE-70 xenograft, combination of both
# CTG-1427 = experiment: Antitumor activity in ovarian cancer PDX model CTG-1427; assay type: in vivo, mouse; conditions: 42 days until end of test, doses as Table 3
# Protocol: as §1, §2, §3, §4
# CTG-1624 = experiment: Antitumor activity in ovarian cancer PDX model CTG-1624; assay type: in vivo, mouse; conditions: 38 days until end of test, doses as Table 3
# Protocol: as §1, §2, §3, §4
# CTG-1301 = experiment: Antitumor activity in ovarian cancer PDX model CTG-1301; assay type: in vivo, mouse; conditions: CTG-1301 (carboplatin and paclitaxel-resistant); 38 days until end of test; doses as Table 3
# Protocol: as §1, §2, §3, §4
# CTG-1809 = experiment: Antitumor activity in ovarian cancer PDX model CTG-1809; assay type: in vivo, mouse; conditions: CTG-1809 (carboplatin and paclitaxel-resistant); 36 days until end of test; doses as Table 3
# Protocol: as §1, §2, §3, §4
# CTG-0791 = experiment: Antitumor activity in ovarian cancer PDX model CTG-0791; assay type: in vivo, mouse; conditions: CTG-0791 (carboplatin and paclitaxel-resistant); 35 days until end of test; doses as Table 3
# Protocol: as §1, §2, §3, §4
# [2] = BI 853520 50 mg/kg qd, docetaxel 10 mg/kg q7d
structure (smiles),measurement,setting,value
"COc1cc(C(=O)NC2CCN(C)CC2)c(F)cc1Nc1ncc(C(F)(F)F)c(Oc2cccc3c2C(=O)N(C)C3)n1 [BI 853520, 2-fluoro-5-methoxy-4-[(4-(2-methyl-3-oxo-2,3-dihydro-1H-isoindole-4-oxy)-5-trifluoromethyl-pyrimidin-2-yl)amino]-N-(1-methyl-piperidin-4-yl)benzamide]",TGI (%),CTG-0252,54%
same,TGI (%),CTG-0257,67%
same,Antitumor effect (in words),"[1]; GXA 3039 PDX, doses as Table 8",did not show any antitumor efficacy
same,Td (time to tumor volume doubling),"[1]; GXA 3039 PDX, time to 200% of median RTV, doses as Table 8",8.1 days
same,Tq (time to tumor volume quadrupling),"[1]; GXA 3039 PDX, time to 400% of median RTV, nr = not reached until end of test, doses as Table 8",41.2 days
same,TGI [%] (d),"[1]; GXA 3039 gastric cancer PDX, day 36, BI 853520 50 mg/kg/d PO days 1-35, docetaxel 10 mg/kg IV days 1, 8, 15, 22, 29, combination of both",0% and 0(36) %
same,Survival rate,"[1]; female, BomTac:NMRI-Foxn1nu, mouse, in vivo",4/8
same,Median tumor volume,"KYSE-70 cells; day 42, BI 853520 50 mg/kg qd by gavage, docetaxel 10 mg/kg q7d i.v.",497 mm^3
same,Antitumor effect (in words),KYSE-70 cells; [2],no inhibitory effect on tumor growth
same,Change in median body weight,KYSE-70 cells; [2],8.8%
same,TGI,KYSE-70 cells; [2],42%
same,Tumor regression (animals with regression/animals in group),KYSE-70 cells; [2],1 of the 7 and 1/7
same,TGI (%),CTG-1427,59%
same,TGI (%),CTG-1624,22%
same,TGI (%),CTG-1301,43%
same,TGI (%),CTG-1809,−58%
same,TGI (%),CTG-0791,−21%
